Patent US20060069132A1, “Azolecarboxamide herbicides” (priority 2004, published 2006)

Legend:
large crabgrass = test: Test A pre-/postemergence herbicide test; format: in vivo, Digitaria sanguinalis
Summary of the method: (§1)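 Visual injury rating on a 0–100 scale (0 no effect, 100 complete control) versus untreated controls, about ten days after treatment in greenhouse. Pre: directed soil spray onto seeded sandy loam. Post: spray to runoff on plants 2–10 cm tall at one- to two-leaf stage.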

lambsquarters [1] = test: Test C pre-/postemergence herbicide test; format: in vivo, Chenopodium album; settings: for Lambsquarters plant response rating: 500 g ai/ha
Summary of the method: (§2)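 Pre- and postemergence application, solvent/surfactant formulation; post at 1- to 4-leaf stage (2–18 cm). Greenhouse 12–14 d. Visual rating vs controls, 0 = no effect, 100 = complete control.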

woolly cupgrass = test: Test C pre-/postemergence herbicide test; format: in vivo, Eriochloa villosa; settings: for Cupgrass, Woolly plant response rating: 500 g ai/ha
Summary of the method: as §2

Surinam grass = test: Test C pre-/postemergence herbicide test; format: in vivo, Urochloa decumbens; settings: for Surinam Grass plant response rating: 500 g ai/ha
Summary of the method: as §2

lambsquarters [2] = test: Test B pre-/postemergence herbicide test; format: in vivo, Chenopodium album; settings: for Lambsquarters plant response rating: postemergence, visual rating
Summary of the method: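 Test chemicals in a non-phytotoxic solvent mixture with surfactant were applied preemergence to seeded species and postemergence to plants 2-18 cm tall (1- to 4-leaf stage); rice and barnyardgrass were also tested in a flooded paddy at the 2-leaf stage. Visual rating versus controls after 13-15 days in greenhouse, scale 0 (no effect) to 100 (complete control).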

giant foxtail = test: Test A pre-/postemergence herbicide test; format: in vivo, Setaria faberi
Summary of the method: as §1

pigweed = test: Test C pre-/postemergence herbicide test; format: in vivo, Amaranthus retroflexus; settings: for Pigweed plant response rating: 500 g ai/ha
Summary of the method: as §2

johnsongrass = test: Test C pre-/postemergence herbicide test; format: in vivo, Sorghum halepense; settings: for Johnsongrass plant response rating: 500 g ai/ha
Summary of the method: as §2

cocklebur = test: Test B pre-/postemergence herbicide test; format: in vivo, Xanthium strumarium; settings: for Cocklebur plant response rating: postemergence, visual rating
Summary of the method: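 Herbicidal effect was judged by eye on a 0–100 scale after plants stood 13 to 15 days in the greenhouse following pre- or postemergence treatment with surfactant-containing formulations.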

[3] = Postemergence, 500 g ai/ha, 0 to 100 scale, 0 no effect, 100 complete control
[4] = Postemergence, 2000 g ai/ha, 0 to 100 scale, 0 no effect, 100 complete control
[5] = Preemergence, 500 g ai/ha, visual rating, 0 to 100 scale (0 no effect, 100 complete control)
[6] = Preemergence, 2000 g ai/ha, visual rating, 0 to 100 scale (0 no effect, 100 complete control)
[7] = Postemergence, 250 g ai/ha, scale 0 to 100, 0 no effect, 100 complete control
[8] = postemergence, 125 g ai/ha, scale 0 to 100
[9] = postemergence, 62 g ai/ha, scale 0 to 100
[10] = 500 g ai/ha, visual rating 0-100, 0 no effect, 100 complete control, preemergence
[11] = Postemergence, 500 g ai/ha, visual rating after 13 to 15 days, scale 0 (no effect) to 100 (complete control)
[12] = 125 g ai/ha, scale 0 (no effect) to 100 (complete control)
[13] = preemergence, 125 g ai/ha, 0 to 100 scale, 0 is no effect, 100 is complete control
[14] = preemergence, 500 g ai/ha, visual injury, 0 to 100 scale (0 no effect, 100 complete control)
[15] = 62 g ai/ha, preemergence, scale 0 to 100
[16] = 125 g ai/ha, scale 0 (no effect) to 100 (complete control), visual, 12 to 14 days, preemergence
[17] = 250 g ai/ha, scale 0-100, preemergence
[18] = Preemergence, scale 0 to 100, 0 no effect, 100 complete control
[19] = 125 g ai/ha, 0 = no effect, 100 = complete control, preemergence
[20] = 500 g ai/ha, scale 0 (no effect) to 100 (complete control)

For `CC(=NO)c1cccc(NC(=O)c2cc(C(C)(C)C)nn2CC(F)(F)F)c1` [Compound 112], the “Crabgrass, Large plant response rating” value (large crabgrass; [3]) was 25, the “Plant response rating, Crabgrass, Large” value (large crabgrass; [4]) was 30 and the “Crabgrass, Large plant response rating” value (large crabgrass; [5]) was 45. For the same compound, the “Crabgrass, Large plant response rating” value (large crabgrass; [6]) was 55, the “Lambsquarters plant response rating” value (lambsquarters [1]; Postemergence, scale 0 to 100) was 100 and the “Plant response rating, Lambsquarters” value (lambsquarters [1]; [7]) was 100. For the same compound, the “Plant response rating, Lambsquarters” value (lambsquarters [1]; [8]) was 20, the “Plant response rating, Lambsquarters” value (lambsquarters [1]; [9]) was 20 and the “Cupgrass, Woolly plant response rating” value (woolly cupgrass; Postemergence, scale 0 to 100) was 70. The “Plant response rating, Cupgrass, Woolly” value (woolly cupgrass; [7]) was 60, the “Plant response rating, Cupgrass, Woolly” value (woolly cupgrass; [8]) was 30 and the “Plant response rating, Cupgrass, Woolly” value (woolly cupgrass; [9]) was 0. For the same compound, the “Surinam Grass plant response rating” value (Surinam grass; Postemergence, scale 0 to 100) was 60, the “Plant response rating, Surinam Grass” value (Surinam grass; [7]) was 40 and the “Plant response rating, Surinam Grass” value (Surinam grass; [8]) was 40. For the same compound, the “Plant response rating, Surinam Grass” value (Surinam grass; [9]) was 20, the “Plant response rating, Lambsquarters” value (lambsquarters [2]; [10]) was 90 and the “Plant response rating, Lambsquarters” value (lambsquarters [2]; [11]) was 100. For the same compound, the “Lambsquarters plant response rating” value (lambsquarters [2]; [12]) was 90, the “Plant response rating, Lambsquarters” value (lambsquarters [2]; [13]) was 0 and the “Foxtail, Giant plant response rating” value (giant foxtail; [3]) was 20. The “Plant response rating, Foxtail, Giant” value (giant foxtail; [4]) was 35, the “Foxtail, Giant plant response rating” value (giant foxtail; [5]) was 25 and the “Foxtail, Giant plant response rating” value (giant foxtail; [6]) was 50. For the same compound, the “Pigweed plant response rating” value (pigweed; Postemergence, scale 0 to 100) was 100, the “Plant response rating, Pigweed” value (pigweed; [7]) was 100 and the “Plant response rating, Pigweed” value (pigweed; [8]) was 60. For the same compound, the “Plant response rating, Pigweed” value (pigweed; [9]) was 10, the “Johnsongrass plant response rating” value (johnsongrass; Postemergence, scale 0 to 100) was 60 and the “Plant response rating, Johnsongrass” value (johnsongrass; [7]) was 50. For the same compound, the “Plant response rating, Johnsongrass” value (johnsongrass; [8]) was 20, the “Plant response rating, Johnsongrass” value (johnsongrass; [9]) was 20 and the “Plant response rating, Cocklebur” value (cocklebur; [10]) was 0. The “Plant response rating, Cocklebur” value (cocklebur; [11]) was 100, the “Cocklebur plant response rating” value (cocklebur; [12]) was 60 and the “Plant response rating, Cocklebur” value (cocklebur; [13]) was 0.
With `C=CCNC(=O)c1cccc(NC(=O)c2sc(C(C)(C)C)nc2C)c1` [Compound 202] the “Crabgrass, Large plant response rating” value (large crabgrass; [3]) was 30, the “Plant response rating, Crabgrass, Large” value (large crabgrass; [4]) was 65 and the “Crabgrass, Large plant response rating” value (large crabgrass; [6]) was 100. For the same compound, the “Crabgrass, Large plant response rating” value (large crabgrass; [14]) was 85, the “Plant response rating, Lambsquarters” value (lambsquarters [1]; [15]) was 40 and the “Plant response rating, Lambsquarters” value (lambsquarters [1]; [16]) was 90. For the same compound, the “Plant response rating, Lambsquarters” value (lambsquarters [1]; [17]) was 100, the “Lambsquarters plant response rating” value (lambsquarters [1]; [18]) was 100 and the “Plant response rating, Cupgrass, Woolly” value (woolly cupgrass; [15]) was 0. The “Plant response rating, Cupgrass, Woolly” value (woolly cupgrass; [16]) was 10, the “Plant response rating, Cupgrass, Woolly” value (woolly cupgrass; [17]) was 20 and the “Cupgrass, Woolly plant response rating” value (woolly cupgrass; [18]) was 60. For the same compound, the “Plant response rating, Surinam Grass” value (Surinam grass; [15]) was 10, the “Plant response rating, Surinam Grass” value (Surinam grass; [16]) was 20 and the “Plant response rating, Surinam Grass” value (Surinam grass; [17]) was 40. The “Surinam Grass plant response rating” value (Surinam grass; [18]) was 60, the “Lambsquarters plant response rating (0 to 100 scale)” value (lambsquarters [2]; [19]) was 30 and the “Plant response rating, Lambsquarters” value (lambsquarters [2]; [10]) was 100. The “Lambsquarters plant response rating” value (lambsquarters [2]; [12]) was 50, the “Lambsquarters plant response rating” value (lambsquarters [2]; [20]) was 50 and the “Foxtail, Giant plant response rating” value (giant foxtail; [3]) was 30. For the same compound, the “Plant response rating, Foxtail, Giant” value (giant foxtail; [4]) was 50, the “Foxtail, Giant plant response rating” value (giant foxtail; [6]) was 80 and the “Foxtail, Giant plant response rating” value (giant foxtail; [14]) was 55. For the same compound, the “Plant response rating, Pigweed” value (pigweed; [15]) was 95, the “Plant response rating, Pigweed” value (pigweed; [16]) was 100 and the “Plant response rating, Pigweed” value (pigweed; [17]) was 100. The “Pigweed plant response rating” value (pigweed; [18]) was 100, the “Plant response rating, Johnsongrass” value (johnsongrass; [15]) was 0 and the “Plant response rating, Johnsongrass” value (johnsongrass; [16]) was 40. The “Plant response rating, Johnsongrass” value (johnsongrass; [17]) was 70, the “Johnsongrass plant response rating” value (johnsongrass; [18]) was 75 and the “Cocklebur plant response rating (0 to 100 scale)” value (cocklebur; [19]) was 0. For the same compound, the “Plant response rating, Cocklebur” value (cocklebur; [10]) was 10, the “Cocklebur plant response rating” value (cocklebur; [12]) was 30 and the “Cocklebur plant response rating” value (cocklebur; [20]) was 40.
`CCn1nc(C(C)(C)C)cc1C(=O)Nc1cccc(C#N)c1` [Compound 139] was tested, and the “Crabgrass, Large plant response rating” value (large crabgrass; [3]) was 0, the “Plant response rating, Crabgrass, Large” value (large crabgrass; [4]) was 30 and the “Crabgrass, Large plant response rating” value (large crabgrass; [5]) was 45. The “Crabgrass, Large plant response rating” value (large crabgrass; [6]) was 75, the “Plant response rating (0 = no effect, 100 = complete control), Lambsquarters” value (lambsquarters [1]; 62 g ai/ha, preemergence) was 100 and the “Plant response rating, Lambsquarters” value (lambsquarters [1]; [16]) was 100. The “Plant response rating (0 = no effect, 100 = complete control), Cupgrass, Woolly” value (woolly cupgrass; 62 g ai/ha, preemergence) was 0, the “Plant response rating, Cupgrass, Woolly” value (woolly cupgrass; [16]) was 10 and the “Plant response rating, Cupgrass, Woolly” value (woolly cupgrass; 250 g ai/ha, scale 0 to 100 (0 no effect, 100 complete control), visual, 12 to 14 days, preemergence) was 55. The “Plant response rating, Cupgrass, Woolly” value (woolly cupgrass; [7]) was 5, the “Plant response rating, Cupgrass, Woolly” value (woolly cupgrass; [8]) was 0 and the “Plant response rating, Cupgrass, Woolly” value (woolly cupgrass; [9]) was 0. For the same compound, the “Plant response rating (0 = no effect, 100 = complete control), Surinam Grass” value (Surinam grass; 62 g ai/ha, preemergence) was 0, the “Plant response rating, Surinam Grass” value (Surinam grass; [16]) was 20 and the “Plant response rating, Surinam Grass” value (Surinam grass; [7]) was 0. For the same compound, the “Plant response rating, Surinam Grass” value (Surinam grass; [8]) was 0, the “Plant response rating, Surinam Grass” value (Surinam grass; [9]) was 0 and the “Plant response rating, Lambsquarters” value (lambsquarters [2]; [10]) was 100. For the same compound, the “Lambsquarters plant response rating” value (lambsquarters [2]; [12]) was 80, the “Lambsquarters plant response rating” value (lambsquarters [2]; [20]) was 90 and the “Plant response rating, Lambsquarters” value (lambsquarters [2]; [13]) was 100. The “Foxtail, Giant plant response rating” value (giant foxtail; [3]) was 20, the “Plant response rating, Foxtail, Giant” value (giant foxtail; [4]) was 40 and the “Foxtail, Giant plant response rating” value (giant foxtail; [5]) was 60. For the same compound, the “Foxtail, Giant plant response rating” value (giant foxtail; [6]) was 75, the “Plant response rating (0 = no effect, 100 = complete control), Pigweed” value (pigweed; 62 g ai/ha, preemergence) was 100 and the “Plant response rating, Pigweed” value (pigweed; [16]) was 100. The “Plant response rating, Pigweed” value (pigweed; [7]) was 80, the “Plant response rating, Pigweed” value (pigweed; [8]) was 65 and the “Plant response rating, Pigweed” value (pigweed; [9]) was 50. The “Plant response rating (0 = no effect, 100 = complete control), Johnsongrass” value (johnsongrass; 62 g ai/ha, preemergence) was 20, the “Plant response rating, Johnsongrass” value (johnsongrass; [16]) was 30 and the “Plant response rating, Johnsongrass” value (johnsongrass; [7]) was 0. The “Plant response rating, Johnsongrass” value (johnsongrass; [8]) was 0, the “Plant response rating, Johnsongrass” value (johnsongrass; [9]) was 0 and the “Plant response rating, Cocklebur” value (cocklebur; [10]) was 10. The “Cocklebur plant response rating” value (cocklebur; [12]) was 20, the “Cocklebur plant response rating” value (cocklebur; [20]) was 100 and the “Plant response rating, Cocklebur” value (cocklebur; [13]) was 0.
